US20060069132A1, “Azolecarboxamide herbicides” (priority 2004, published 2006)

Legend:
cocklebur = assay: Test B pre-/postemergence herbicide test; format: in vivo, Xanthium strumarium; conditions: for Plant response rating, Cocklebur: preemergence; for Cocklebur plant response rating: postemergence, visual rating, scale 0 (no effect) to 100 (complete control)
Outline: (§1)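 Plants compared with untreated controls 13–15 days post-treatment and given a visual 0–100 injury score. Applications: preemergence to seeds; postemergence at 1- to 4-leaf (2–18 cm); paddy species flooded, 2-leaf stage. Vehicle non-phytotoxic, surfactant included.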

barnyardgrass [1] = assay: Test B flooded paddy test; format: in vivo, Echinochloa crus-galli; conditions: 1000 g ai/ha, visual rating, scale 0 to 100 (0 no effect, 100 complete control), 13 to 15 days
Outline: (§2)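 Formulated test chemicals went onto postemergence plants measuring 2 to 18 cm, at one to four leaves. For the paddy assay, species had reached two leaves. Scoring took place 13–15 days later by eye, relative to untreated plants, using 0 for no effect up to 100 for full control.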

blackgrass = assay: Test B postemergence herbicide test; format: in vivo, Alopecurus myosuroides; conditions: postemergence, visual rating, scale 0 (no effect) to 100 (complete control)
Outline: as §2

large crabgrass = assay: Test B pre-/postemergence herbicide test; format: in vivo, Digitaria sanguinalis; conditions: for Plant response rating, Crabgrass, Large: preemergence; for Crabgrass, Large plant response rating: postemergence, visual rating, scale 0 (no effect) to 100 (complete control)
Outline: (§3)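 Flooded paddy rice and barnyardgrass were treated at the 2-leaf stage; upland plantings received compound either on sown seed or on 1- to 4-leaf seedlings. All were kept 13–15 days in a greenhouse and scored visually, 0–100, relative to untreated plants.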

velvetleaf = assay: Test B pre-/postemergence herbicide test; format: in vivo, Abutilon theophrasti; conditions: for Plant response rating, Velvetleaf: preemergence; for Velvetleaf plant response rating: postemergence, visual rating, scale 0 (no effect) to 100 (complete control)
Outline: as §3

Surinam grass = assay: Test B pre-/postemergence herbicide test; format: in vivo, Urochloa decumbens; conditions: for Plant response rating, Surinam Grass: preemergence; for Surinam Grass plant response rating: postemergence, visual rating, scale 0 (no effect) to 100 (complete control)
Outline: as §3

rice [2] = assay: Test C flooded paddy test; format: in vivo, Oryza sativa
Outline: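 Injury scored visually against controls on a 0 (no effect) to 100 (complete control) scale, 12 to 14 days after treatment in greenhouse. Flooded paddy plants treated at 2-leaf stage; postemergence plants at 1- to 4-leaf stage, 2 to 18 cm tall.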

giant foxtail = assay: Test B pre-/postemergence herbicide test; format: in vivo, Setaria faberi; conditions: for Plant response rating, Foxtail, Giant: preemergence; for Foxtail, Giant plant response rating: postemergence, visual rating, scale 0 (no effect) to 100 (complete control)
Outline: as §3

[3] = tested on: small flower umbrella sedge; assay: Test B flooded paddy test; format: in vivo, Cyperus difformis; conditions: 1000 g ai/ha, visual rating, scale 0 to 100 (0 no effect, 100 complete control), 13 to 15 days
Outline: as §2

ducksalad [4] = assay: Test B flooded paddy test; format: in vivo, Heteranthera limosa; conditions: 1000 g ai/ha, visual rating, scale 0 to 100 (0 no effect, 100 complete control), 13 to 15 days
Outline: as §2

ducksalad [5] = assay: Test C flooded paddy test; format: in vivo, Heteranthera limosa
corn = assay: Test B pre-/postemergence herbicide test; format: in vivo, Zea mays; conditions: for Plant response rating, Corn: preemergence; for Corn plant response rating: postemergence, visual rating, scale 0 (no effect) to 100 (complete control)
Outline: as §3

lambsquarters = assay: Test B pre-/postemergence herbicide test; format: in vivo, Chenopodium album; conditions: for Plant response rating, Lambsquarters: preemergence; for Lambsquarters plant response rating: postemergence, visual rating, scale 0 (no effect) to 100 (complete control)
Outline: as §3

[6] = tested on: smallflower umbrella sedge; assay: Test C flooded paddy test; format: in vivo, Cyperus difformis
barnyardgrass [7] = assay: Test B pre-/postemergence herbicide test; format: in vivo, Echinochloa crus-galli; conditions: for Plant response rating, Barnyardgrass: preemergence; for Barnyardgrass plant response rating: postemergence, visual rating, scale 0 (no effect) to 100 (complete control)
Outline: as §1

wild oat = assay: Test B postemergence herbicide test; format: in vivo, Avena fatua; conditions: postemergence, visual rating, scale 0 (no effect) to 100 (complete control)
Outline: as §2

rice [8] = assay: Test B flooded paddy test; format: in vivo, Oryza sativa; conditions: 1000 g ai/ha, visual rating, scale 0 to 100 (0 no effect, 100 complete control), 13 to 15 days
Outline: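 After treating 2-leaf paddy plants or 2–18 cm postemergence plants (1 to 4 leaves) with formulated chemical, researchers kept them in a greenhouse for 13–15 days. Effects were judged visually versus controls: 0 indicates none, 100 total control.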

wheat = assay: Test B postemergence herbicide test; format: in vivo, Triticum aestivum; parameters: key to Wheat plant response rating: 0 = no effect, 100 = complete control; conditions: postemergence, 500 g ai/ha; visual rating, scale 0 (no effect) to 100 (complete control)
Outline: as §2

pigweed = assay: Test B pre-/postemergence herbicide test; format: in vivo, Amaranthus retroflexus; conditions: for Plant response rating, Pigweed: preemergence; for Pigweed plant response rating: postemergence, visual rating, scale 0 (no effect) to 100 (complete control)
Outline: as §3

barnyardgrass [9] = assay: Test C flooded paddy test; format: in vivo, Echinochloa crus-galli
Outline: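 Greenhouse test with a 12–14 day hold after application and visual comparison with controls. Emerged plants were 1- to 4-leaf stage (2–18 cm) when sprayed postemergence, and the paddy barnyardgrass was at 2 leaves under flooded conditions. 100 = complete control.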

morningglory = assay: Test B pre-/postemergence herbicide test; format: in vivo, Ipomoea coccinea; conditions: for Morningglory plant response rating: postemergence, visual rating, scale 0 (no effect) to 100 (complete control)
Outline: as §1

rice [10] = assay: Test B pre-/postemergence herbicide test; format: in vivo, Oryza sativa; conditions: preemergence
Outline: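 Evaluation is visual, comparing treated with control plants on a scale where 0 means no effect and 100 means full control. Treatments were preemergence, or postemergence on seedlings 2–18 cm tall, and held 13–15 days in the greenhouse.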

[11] = 500 g ai/ha, visual rating 0-100, 0 no effect, 100 complete control
[12] = 125 g ai/ha, 0 to 100 scale, 0 is no effect, 100 is complete control
[13] = 62 g ai/ha, scale 0 to 100 (0 no effect, 100 complete control)
[14] = 125 g ai/ha, scale 0 to 100 (0 no effect, 100 complete control)
[15] = 250 g ai/ha, scale of 0 to 100, 0 is no effect, 100 is complete control
[16] = 500 g ai/ha, visual rating after 12 to 14 days, scale 0 to 100 (0 no effect, 100 complete control)

CCn1nc(C(C)(C)C)cc1C(=O)Nc1cc(C(=O)N2CC=CC2)ccn1 [Compound 142]
80: Plant response rating, Crabgrass, Large (large crabgrass; [12]) | Plant response rating, Velvetleaf (velvetleaf; [12]) | Sedge, Umbrella plant response rating [3] | Lambsquarters plant response rating (lambsquarters; 500 g ai/ha) | Sedge, Umbrella plant response rating [6, 14] | Sedge, Umbrella plant response rating [6, 15] | Barnyardgrass plant response rating (barnyardgrass [9]; [15]) | Plant response rating, Rice (rice [10]; [11])
100: Plant response rating, Crabgrass, Large (large crabgrass; [11]) | Plant response rating, Velvetleaf (velvetleaf; [11]) | Plant response rating, Foxtail, Giant (giant foxtail; [11]) | Plant response rating, Ducksalad (ducksalad [5]; [16]) | Plant response rating, Lambsquarters (lambsquarters; [11]) | Plant response rating, Lambsquarters (lambsquarters; [12]) | Plant response rating, Barnyardgrass (barnyardgrass [7]; [11]) | Plant response rating, Pigweed (pigweed; [11]) | Plant response rating, Pigweed (pigweed; [12])
50: Pigweed plant response rating (pigweed; 125 g ai/ha) | Barnyardgrass plant response rating (barnyardgrass [9]; [13]) | Morningglory plant response rating (morningglory; 500 g ai/ha)
30: Plant response rating, Cocklebur (cocklebur; [12]) | Foxtail, Giant plant response rating (giant foxtail; 125 g ai/ha) | Foxtail, Giant plant response rating (giant foxtail; 500 g ai/ha) | Plant response rating, Morningglory (morningglory; 500 g ai/ha, visual rating 0-100, 0 no effect, 100 complete control, preemergence) | Plant response rating, Rice (rice [10]; [12])
10: Crabgrass, Large plant response rating (large crabgrass; 500 g ai/ha) | Velvetleaf plant response rating (velvetleaf; 125 g ai/ha) | Surinam Grass plant response rating (Surinam grass; 125 g ai/ha) | Plant response rating, Surinam Grass (Surinam grass; [12]) | Barnyardgrass plant response rating (barnyardgrass [7]; 500 g ai/ha) | Wheat plant response rating (wheat)
60: Velvetleaf plant response rating (velvetleaf; 500 g ai/ha) | Plant response rating, Surinam Grass (Surinam grass; [11]) | Plant response rating, Foxtail, Giant (giant foxtail; [12]) | Lambsquarters plant response rating (lambsquarters; 125 g ai/ha) | Pigweed plant response rating (pigweed; 500 g ai/ha)
65: Barnyardgrass plant response rating (barnyardgrass [9]; 125 g ai/ha, scale of 0 to 100, 0 is no effect, 100 is complete control)
70: Rice plant response rating (rice [2]; [13]) | Rice plant response rating (rice [2]; [14]) | Rice plant response rating (rice [2]; [15]) | Plant response rating, Rice (rice [2]; [16]) | Plant response rating, Barnyardgrass (barnyardgrass [7]; [12]) | Rice plant response rating (rice [8])
90: Barnyardgrass plant response rating (barnyardgrass [1]) | Ducksalad plant response rating (ducksalad [4]) | Ducksalad plant response rating (ducksalad [5]; [14]) | Plant response rating, Sedge, Umbrella [6, 16] | Plant response rating, Barnyardgrass (barnyardgrass [9]; [16])
20: Surinam Grass plant response rating (Surinam grass; 500 g ai/ha) | Oat, Wild plant response rating (wild oat; 125 g ai/ha) | Oat, Wild plant response rating (wild oat; 500 g ai/ha)
40: Plant response rating, Cocklebur (cocklebur; [11]) | Cocklebur plant response rating (cocklebur; 125 g ai/ha) | Cocklebur plant response rating (cocklebur; 500 g ai/ha) | Blackgrass plant response rating (blackgrass; 125 g ai/ha) | Blackgrass plant response rating (blackgrass; 500 g ai/ha)
95: Ducksalad plant response rating (ducksalad [5]; [15])
0: Crabgrass, Large plant response rating (large crabgrass; 125 g ai/ha) | Plant response rating, Corn (corn; [11]) | Corn plant response rating (corn; 125 g ai/ha) | Corn plant response rating (corn; 500 g ai/ha) | Plant response rating, Corn (corn; [12]) | Barnyardgrass plant response rating (barnyardgrass [7]; 125 g ai/ha) | Morningglory plant response rating (morningglory; 125 g ai/ha)
75: Ducksalad plant response rating (ducksalad [5]; [13]) | Sedge, Umbrella plant response rating [6, 13]
